Assay results reported in US20260373103A1, “COMPOSITIONS AND METHODS FOR PREVENTING CARDIOMYOPATHY” (OHIO STATE INNOVATION FOUNDATION, priority 2022, published 2026).
“Also recorded” adds a separate entry of the source.

Experiments:
NDP52 = NDP52 level after A/O, immunoblotting; type: cell-based; settings: Parkin positive cells, A/O 18 h, ST-539 3 μg/ml; not in WT HeLa or PINK1 KO cells
Experimental: (§1) HeLa cells and mouse embryonic fibroblasts (MEFs) were grown in Dulbecco's minimum essential medium (DMEM) with 10% fetal bovine serum (FBS) supplemented with penicillin-streptomycin. HeLa Parkin, PINK1 KO cells, WT and MFN2 KO cells were previously described. Cells stably expressing USP30 were generated using lentiviral vectors of pLVX-Puro-Myc-USP30. The USP30 plasmid was obtained from Addgene. The plasmid was transferred into a lentiviral vector and viral particles were prepared by transiently transfecting HEK293T using standard methods. For the drug treatment experiments, cells were incubated in medium containing a mixture of 5 μM oligomycin and 5 μM antimycin A (A/O; see figures for treatment times). In 18 h treatment, A/O were used in combination with 10 μM quinolyl-valyl-O-methylaspartyl-[−2,6-difluorophenoxy]-methyl ketone (QVD), a broad-spectrum caspase inhibitor. […]
Genetic suppression of USP30 in Parkin-overexpressing cells promotes the clearance of mitochondria in response to mitochondrial depolarizing agents. […] To investigate if the PINK 1/Parkin pathway is required for ST-539 induced mitophagy, we analyzed TOM20 ubiquitination in wild-type (WT) HeLa cells, which express little to no endogenous Parkin, as well as in WT and PINK1 knockout (KO) HeLa cells stably expressing YFP-tagged Parkin. […]

[1] = system: HeLa-Parkin or HeLa-Parkin/USP30 cells; assay: Mitochondrial membrane potential (TMRM signal); type: cell-based; settings: ST-539 3 to 10 μg/ml
Experimental: ΔΨm was measured using a fluorescence microplate reader (BioTek Instruments) in cells preincubated with Tetramethylrhodamine methyl ester (TMRM, Thermo Scientific) following manufacturer's instructions. Cells were washed in PBS before resuspension in Hank's balanced salt solution (HBSS; 156 mM NaCl, 3 mM KCl, 2 mM MgSO4, 1.25 mM KH2PO4, 2 mM CaCl2), 10 mM glucose and 10 mM HEPES; pH adjusted to 7.35 with NaOH) (1.0×10^6 cells/ml) containing 50 nM TMRM. For each individual experiment, average TMRM fluorescence was normalized to control cells.
We initially analyzed mitochondrial function using Tetramethylrhodamine (TMRM), a dye requiring mitochondrial membrane potential to accumulate within the mitochondria.

[2] = system: HeLa-Parkin and HeLa-Parkin cells expressing USP30; assay: Cell proliferation; type: cell-based; settings: ST-539, 24 hours
TIM23 = TIM23 protein level/degradation after A/O, immunoblotting; type: cell-based; settings: ST-539; HeLa-Parkin/USP30, A/O 18 h
Experimental: as §1
(§2) The enzymatic activity of Parkin is to function as an E3 ubiquitin ligase. […] We then employed this cellular assay to monitor TOM20 turnover, and analyzed compounds known to be associated with the ubiquitination process for inhibitors of USP30. […] Initially to assess mitophagy in cells, we monitored the degradation of the inner membrane protein, the translocase of the inner membrane 23 (TIM23), by immunoblotting (FIG. 5A). […]

Mfn2^−/− MEF cells = assay: Mitochondrial morphology, confocal imaging; type: cell-based, mouse; settings: 3 or 10 μg/ml ST-539, 24 h
Experimental: (§3) HeLa cells and mouse embryonic fibroblasts (MEFs) were grown in Dulbecco's minimum essential medium (DMEM) with 10% fetal bovine serum (FBS) supplemented with penicillin-streptomycin. HeLa Parkin, PINK1 KO cells, WT and MFN2 KO cells were previously described. Cells stably expressing USP30 were generated using lentiviral vectors of pLVX-Puro-Myc-USP30. The USP30 plasmid was obtained from Addgene. The plasmid was transferred into a lentiviral vector and viral particles were prepared by transiently transfecting HEK293T using standard methods. For the drug treatment experiments, cells were incubated in medium containing a mixture of 5 μM oligomycin and 5 μM antimycin A (A/O; see figures for treatment times). In 18 h treatment, A/O were used in combination with 10 μM quinolyl-valyl-O-methylaspartyl-[−2,6-difluorophenoxy]-methyl ketone (QVD), a broad-spectrum caspase inhibitor. ST51000539 (ST-539) was purchased from Tim Tec, Inc. Other chemicals were from Sigma-Aldrich (St. Louis, MO, USA). For FACS analysis, cells stably expressing mt-Keima were incubated in medium containing a mixture of […] antimycin A for 1.5 h. Prior to A/O treatment, cultures were treated with DMSO or ST-539 at 3 μg/ml. Cells were trypsinized, washed once with PBS buffer and then resuspended into 500 μl of PBS prior to analysis using a BD Fortessa flow cytometer as previously described.

mitochondrial function = assay: Mitochondrial function overall in cells; type: cell-based; settings: regardless of USP30 expression
Experimental: as §3

mice = assay: Safety / tolerability in mice; type: in vivo; settings: 25 mg/kg/day i.p. for 5 days
Experimental: (§4) The mt-Keima mouse. ST-539 was dissolved into 1% DMSO in Sesame oil and injected intraperitoneally (i.p.) at doses of 25 mg/kg/day with five total doses. Both male and female mice were used in this study. The control group received vehicle only. Echocardiographic measurements were taken using a Vevo3100 Visual Sonics (Visual Sonics) system. The mice were lightly anesthetized with isoflurane and the ejection fraction, fractional shortening, and ventricular chamber dimensions were determined using 2-D-guided M mode images. Ejection fraction, fractional shortening, ventricular chamber dimensions, and left ventricular mass were calculated automatically using the VevoLAB program. All experiments involving animals were approved by the Institutional Animal Care and Use Committee at The Ohio State University.

USP30 = settings: in vitro; compound and similar structures; cited from earlier work
TOM40 = TOM40 protein level/degradation after A/O, immunoblotting; type: cell-based; settings: ST-539; HeLa-Parkin/USP30, A/O 18 h
Experimental: as §1, §2

mt-Keima mice = assay: Echocardiographic analysis; type: in vivo, mouse; settings: 25 mg/kg/day i.p. for 5 days, vs vehicle
Experimental: as §4

Jurkat T cells = assay: Doxorubicin-induced apoptosis / cell viability, Resazurin assay; type: cell-based; settings: 48 hours, ST-539 and doxorubicin

With `CC(C)(C)NS(=O)(=O)c1cccc2c(NC(=O)C(Cc3ccccc3)NC(=O)c3ccccc3)cccc12` (stereo not shown) [ST-539] the “reduction in NDP52 level relative to vehicle treated cells” value (NDP52) was “more significant reduction”, the “TMRM staining (mitochondrial membrane potential)” value [1] was “did not block TMRM staining” and the cell proliferation [2] was “maintained”. For the same compound, the TIM23 degradation (TIM23) was “restored TIM23 and TOM40 degradation”, the elongation of mitochondria (Mfn2^−/− MEF cells) was “did not induce the elongation of mitochondria significantly” and the “effect on mitochondrial function” value (mitochondrial function) was “minimal effect on mitochondrial function; also recorded: marginally alters mitochondrial function”. For the same compound, the “safety / tolerability in mice” value (mice) was “appears to be safe in mice”, the “USP30 enzyme function inhibition” value (USP30) was “selectively inhibit USP30 enzyme function in vitro” and the TOM40 degradation (TOM40) was “restored TIM23 and TOM40 degradation”. The cardiac output (mt-Keima mice) was “similar; also recorded: does not appear to impact cardiac output”, the “ejection fraction (EF)” value (mt-Keima mice) was “similar; also recorded: minimal differences” and the “left ventricular posterior wall thickness (LVPWs)” value (mt-Keima mice) was “similar; also recorded: does not appear to impact”. For the same compound, the “doxorubicin-induced apoptosis in leukemia (percent cell viability)” value (Jurkat T cells) was “potentiates doxorubicin-induced apoptosis in leukemia”.
